One data set relates to SK-OV-3. The data set can be described thus: Cytotoxicity against human SKOV3 cells assessed as cell growth inhibition after 48 hrs by neutral red assay. The conditions noted are these: SK-OV-3, 48 h. The format is cell-based.
Another data set concerns BT-549. The data set can be described thus: Cytotoxicity against human BT549 cells assessed as cell growth inhibition after 48 hrs by neutral red assay. The format is cell-based. The conditions noted are these: BT-549, 48 h.
The test system of data set [1] is Mycobacterium tuberculosis. The data set can be described thus: Antitubercular activity against Mycobacterium tuberculosis H37Rv assessed as […] inhibition after 7 days by broth microdilution assay. The format is functional. The conditions noted are these: 168 h.
In a further data set the test system is Vero. The data set can be described thus: Cytotoxicity against African green monkey Vero cells assessed as cell growth inhibition after 48 hrs by neutral red assay. Type of data set: cell-based. The conditions noted are these: Chlorocebus sabaeus.
Data set [2] is described as follows: Selectivity index, ratio of IC50 for African green monkey VERO cells to IC50 for Plasmodium falciparum W2.
For another data set, the system named is LLC-PK1. The data set can be described thus: Cytotoxicity against pig LLC-PK1 cells assessed as cell growth inhibition after 48 hrs by neutral red assay. Type of data set: cell-based. The conditions noted are these: Sus scrofa, LLC-PK1, 48 h.
Data set [3] is described as follows: Retention time of the compound by HPLC analysis. The format is physicochemical.
Data set [4] can be described thus: Selectivity index, ratio of IC50 for pig LLC-PK1 cells to IC50 for Plasmodium falciparum D6.
The test system of another data set is KB. Briefly: Cytotoxicity against human KB cells assessed as cell growth inhibition after 48 hrs by neutral red assay. The format is cell-based.
The next data set relates to SK-MEL. The data set can be described thus: Cytotoxicity against human SK-MEL cells assessed as cell growth inhibition after 48 hrs by neutral red assay. The format is cell-based.
Data set [5] can be described thus: Selectivity index, ratio of IC50 for pig LLC-PK1 cells to IC50 for Plasmodium falciparum W2.
Data set [6] relates to Plasmodium falciparum. The data set can be described thus: Antiplasmodial activity against Plasmodium falciparum D6 infected in human RBC assessed as parasite growth inhibition measured as LDH activity after 72 hrs by plate reader analysis. Conditions: Plasmodium falciparum, D6, 72 h. The format is functional, organism-based.
A short description of data set [7]: Selectivity index, ratio of IC50 for African green monkey VERO cells to IC50 for Plasmodium falciparum D6.
The subject of data set [8] is Plasmodium falciparum. The data set can be described thus: Antiplasmodial activity against Plasmodium falciparum W2 infected in human RBC assessed as parasite growth inhibition measured as LDH activity after 72 hrs by plate reader analysis. Type of data set: functional, organism-based. Conditions: Plasmodium falciparum, W2, 72 h.

Molecules are shown by their SMILES. In brackets after ≈: the same amount, converted by molar mass. Where only a bound is given, the exact number is not on record here.

A word on the MIC90: it is the lowest concentration that inhibits either 90% of growth or 90% of the strains tested, depending on the study. In the case of `Nc1nccc(-c2cn(S(=O)(=O)c3ccc(C(F)(F)F)cc3[N+](=O)[O-])c3ccc(Br)cc23)n1`, the IC50 with SK-OV-3 was above 28 µM; in the data set on BT-549 it was above 46 µM; in the data set with Vero it was above 46 µM; in the data set on LLC-PK1, above 46 µM; with KB it was above 46 µM; in the data set on SK-MEL, above 46 µM. Further, the IC50 in the data set on Plasmodium falciparum [6] (read-out: IC50) was 2.56 µM; in the data set with Plasmodium falciparum [6] (read-out: pIC50 (converted)) it was 2.56 µM; with Plasmodium falciparum [8] (read-out: IC50), 3.41 µM; in the data set with Plasmodium falciparum [8] (read-out: pIC50 (converted)), 3.41 µM. Moreover, in [1], the MIC90 came out at 118 µM (≈ 64.2 µg/mL). Besides, the “Ratio IC50” value in [2] is above 13.5; in [4] it was above 18; in data set [5] it was above 13.5; in [7], above 18. For the same molecule, the Retention_time in [3] came to 8.26 min.
Regarding `N#Cc1ccc(S(=O)(=O)n2cc(-c3ccnc(N)n3)c3ccccc32)cc1`, the IC50 in the data set with SK-OV-3, in the data set with BT-549, with Vero, in the data set with LLC-PK1, with KB and in the data set with SK-MEL was above 66 µM each time. For the same molecule, the IC50 is 11 µM in the data set on Plasmodium falciparum [6] (read-out: IC50), 11 µM in the data set on Plasmodium falciparum [6] (read-out: pIC50 (converted)), 8.98 µM with Plasmodium falciparum [8] (read-out: IC50) and 8.97 µM in the data set on Plasmodium falciparum [8] (read-out: pIC50 (converted)). The “Ratio IC50” value is reported as above 7.4 in [2], above 6 in data set [4], above 7.4 in [5] and above 6 in data set [7]. The molecule further showed a Retention_time in data set [3] of 7.02 min.
With `CC(=O)Nc1ccc(S(=O)(=O)n2cc(-c3ccnc(N)n3)c3cc(Br)ccc32)cc1`, the IC50 with SK-OV-3, in the data set on BT-549, with Vero, in the data set with LLC-PK1, with KB and in the data set with SK-MEL was above 51 µM each time. Moreover, the IC50 with Plasmodium falciparum [6] (read-out: IC50) is 9.33 µM; in the data set with Plasmodium falciparum [6] (read-out: pIC50 (converted)), 9.33 µM; in the data set on Plasmodium falciparum [8] (read-out: IC50) it was 9.14 µM; in the data set with Plasmodium falciparum [8] (read-out: pIC50 (converted)), 9.14 µM. Moreover, the “Ratio IC50” value is recorded as above 5.6 in data set [2], above 5.5 in data set [4], above 5.6 in data set [5] and above 5.5 in data set [7]. In data set [3], the Retention_time stood at 6.95 min.
Turning to `Nc1nccc(-c2cn(S(=O)(=O)c3ccc([N+](=O)[O-])cc3)c3ccc(Br)cc23)n1`, the IC50 with SK-OV-3, in the data set with BT-549, in the data set on Vero, with LLC-PK1, with KB and in the data set with SK-MEL was above 52 µM each time. Moreover, the IC50 in the data set on Plasmodium falciparum [6] (read-out: IC50) is 4.86 µM; with Plasmodium falciparum [6] (read-out: pIC50 (converted)), 4.86 µM; with Plasmodium falciparum [8] (read-out: IC50), 6.39 µM; with Plasmodium falciparum [8] (read-out: pIC50 (converted)), 6.38 µM. The “Ratio IC50” value in data set [2] was above 8.2; in [4], above 10.8; in [5] it was above 8.2; in data set [7] it was above 10.8. The Retention_time in [3] was 7.78 min.
For the molecule `N#Cc1ccc(S(=O)(=O)n2cc(-c3ccnc(N)n3)c3cc(Br)ccc32)cc1`, the IC50 in the data set with SK-OV-3, with BT-549, with Vero, with LLC-PK1, with KB and in the data set with SK-MEL was above 55 µM throughout. For the same molecule, the IC50 was 10.3 µM in the data set on Plasmodium falciparum [6] (read-out: IC50), 10.3 µM with Plasmodium falciparum [6] (read-out: pIC50 (converted)), 5.2 µM with Plasmodium falciparum [8] (read-out: IC50) and 5.2 µM in the data set with Plasmodium falciparum [8] (read-out: pIC50 (converted)). The MIC90 in data set [1] was 70.6 µM (≈ 32.1 µg/mL). Also, the “Ratio IC50” value in [2] is above 10.6; in data set [4] it was above 5.3; in data set [5], above 10.6; in data set [7] it was above 5.3. In data set [3], this molecule gave a Retention_time of 7.09 min.
Regarding `CC(C)(C)c1ccc(S(=O)(=O)n2cc(-c3ccnc(N)n3)c3cc(Br)ccc32)cc1`, the IC50 in the data set with SK-OV-3, in the data set on BT-549, in the data set on Vero, in the data set on LLC-PK1, in the data set with KB and in the data set with SK-MEL was above 51 µM each time. In addition, the IC50 is 8.36 µM in the data set on Plasmodium falciparum [6] (read-out: IC50), 8.36 µM with Plasmodium falciparum [6] (read-out: pIC50 (converted)), 8.74 µM with Plasmodium falciparum [8] (read-out: IC50) and 8.75 µM in the data set on Plasmodium falciparum [8] (read-out: pIC50 (converted)). The “Ratio IC50” value in data set [2] was above 5.9; in data set [4] it was above 6.1; in data set [5] it was above 5.9; in data set [7], above 6.1. The molecule also gave a Retention_time in data set [3] of 13.2 min.

Source of the values: ChEMBL document CHEMBL3425465, “Synthesis, antimalarial and antitubercular activities of meridianin derivatives” (Eur J Med Chem, 2015).
